Assay results taken from patent publication US6518287B2, “Substituted imidazoles as dual histamine H1 and H3 agonists or antagonists” (Schering Corporation, priority 2000, dated 2003).

Columns and labels:
Histamine H1 receptor = molecular target: T1, Histamine H1 receptor (Rattus norvegicus, UniProt P31390); test: H1-Receptor Binding Assay (rat brain membranes, [3H]pyrilamine); details: HCl salt of the indicated compound, male Sprague-Dawley rat brain membranes, Cheng-Prusoff, read-out: H1 Ave Ki
T1 construct: The tissue source was male Sprague-Dawley rat brain; tissue Rockland Corporation, Gilbertsville, Pa; host or cells: male Sprague-Dawley rat brain membranes
T1 sequence (P31390 whole entry): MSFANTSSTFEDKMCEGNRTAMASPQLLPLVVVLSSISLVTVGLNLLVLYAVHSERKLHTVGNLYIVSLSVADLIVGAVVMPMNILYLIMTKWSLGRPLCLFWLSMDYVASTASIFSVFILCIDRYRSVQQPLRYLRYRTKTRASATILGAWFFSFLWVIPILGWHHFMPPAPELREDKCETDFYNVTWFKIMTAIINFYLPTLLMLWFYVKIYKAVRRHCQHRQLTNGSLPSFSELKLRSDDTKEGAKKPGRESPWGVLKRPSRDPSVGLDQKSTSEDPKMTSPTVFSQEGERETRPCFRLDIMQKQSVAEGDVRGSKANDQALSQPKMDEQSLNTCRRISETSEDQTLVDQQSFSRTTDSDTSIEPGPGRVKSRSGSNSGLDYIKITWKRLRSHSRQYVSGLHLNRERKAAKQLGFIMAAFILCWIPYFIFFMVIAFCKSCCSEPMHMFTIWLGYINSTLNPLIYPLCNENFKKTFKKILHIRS
From the text: General Procedure for H1-Receptor Binding Assay
The procedure used was based on that disclosed in V. T. Tran, R. S. L. Chang, and S. hr. Snyder, “Histamine H1 receptors identified in mammalian brain membranes with [H-3]mepyramine”, Proc. Natl. Acad. Sci. U.S.A 75 (1978) 6290-6294.
I. Tissue Preparation Protocol for Histamine H1 Receptor Binding Assay
1. The tissue source was male Sprague-Dawley rat brain. These were purchased stripped and frozen (available from Rockland Corporation, Gilbertsville, Pa.). The buffer used was ice-cold 50 mM Tris-HCl, pH 7.5. (The pH was determined at 25° C.)
2. The brains were spread out on plastic wrap on the benchtop and allowed to thaw for 10-15 min. After this, everything was kept ice-cold.
3. Two brains were put in each 50 mL round bottom centrifuge tube and 25 mL of buffer was added. Then they were broken up with a Polytron (from Brinkmann Instruments, Westbury, N.Y.) equipped with a PT-10 tip at setting 6 for 30 sec.
4. The volume in the tube was brought up to 45 mL and mixed and the particulate material was centrifuged at 1000×g (3000 rpm, SS-34 rotor) for 10 min to remove nuclei and unbroken cells.
5. Pellets were discarded and the supernatants were centrifuged 10 min at 50,000×g (20,000 rpm, SS-34 rotor).
6. The high-speed pellets were resuspended in a volume of Tris buffer equal to the original (4 mL), the contents of all tubes were pooled, and a sample was taken for BCA protein assay. The material was aliquotted, 45 mL per round-bottom tube, and the resuspension was recentrifuged. The yield of protein was approximately 20 mg/brain, so there was about 40 mg of protein per tube.
7. Pellets were frozen at −80° C.
II. H1 Histamine Receptor Binding Assay
1. FDCL and comparative compounds for assay were independently solubilized at 1 mg/ml DMSO by vortexing, or if necessary by sonication. The first dilution, 100-fold, was made in 50 mM Tris-HCl, pH 7.5, at room temperature. The three or four subsequent ten-fold serial dilutions were made in 1% DMSO/50 mM Tris-HCl, pH 7.5. Drug solutions and assay plates were kept at room temperature during the course of the assay set up.
2. Test compounds were assayed at four or five concentrations: 1, 0.1, 0.01, 0.001, and 0.0001 μg/ml. Twenty μl of drug solution was pipeted into each of three wells.
3. [^3H]Pyrilamine was diluted approximately 2000-fold with ice-cold […] Tris-HCl, pH 7.5 (to a working concentration of 20-25 nM), and put on ice.
4. A frozen tissue pellet was thawed in a 25° C. water bath, resuspended in 50 mM Tris-HCl, pH 7.5, at 1.7-2 mg/ml by brief break-up on the Polytron, and put on ice.
5. Twenty μl of diluted [^3H]pyrilamine was added to each well.
6. One hundred fifty μl of tissue suspension was added to each well.
7. The top of the plate was covered and it was placed in a 25° C. shaking water bath (about 60 oscillations/min) for 30 min.
8. Samples were filtered on a Tomtec Mach 2 harvester (available from Tomtec Corporation, Orange, Conn.) through a GF/B filter mat (from Wallac, Inc., Gaithersburg, Md.) presoaked in 0.3% polyethylenimine. Each sample was thrice washed with ice-cold 50 mM Tris-HCl, pH 7.5 dried 20 sec on the Tomtec, and dried 3-4 min in a microwave oven on a paper towel. The filter was impregnated with MELTILEX brand wax scintillant (from Wallac Corporation) and counted on a Betaplate scintillation counter (from Wallac Corporation).
9. Specific binding was determined as the difference between total and nonspecific binding. The percent inhibition in the presence of inhibitor or standard was determined using the formula:
[1-(sample binding-nonspecific binding)/specific binding]×100
For compounds that inhibit more than 50% at 1 μg/ml, an IC50 value was interpolated from proximate concentrations. […]

H3 receptors = molecular target: T2, H3 receptors (Cavia porcellus, UniProt Q9JI35); test: H3-Receptor Binding Assay (guinea pig brain membranes); details: HCl salt of the indicated compound, 3 nM [3H]R-α-methyl histamine or [3H]Nα-methyl histamine, read-out: H3 Ave Ki
T2 construct: The source of the H3 receptors in this experiment was guinea pig brain; from tissue; host or cells: guinea pig brain membranes
T2 sequence (Q9JI35 whole entry): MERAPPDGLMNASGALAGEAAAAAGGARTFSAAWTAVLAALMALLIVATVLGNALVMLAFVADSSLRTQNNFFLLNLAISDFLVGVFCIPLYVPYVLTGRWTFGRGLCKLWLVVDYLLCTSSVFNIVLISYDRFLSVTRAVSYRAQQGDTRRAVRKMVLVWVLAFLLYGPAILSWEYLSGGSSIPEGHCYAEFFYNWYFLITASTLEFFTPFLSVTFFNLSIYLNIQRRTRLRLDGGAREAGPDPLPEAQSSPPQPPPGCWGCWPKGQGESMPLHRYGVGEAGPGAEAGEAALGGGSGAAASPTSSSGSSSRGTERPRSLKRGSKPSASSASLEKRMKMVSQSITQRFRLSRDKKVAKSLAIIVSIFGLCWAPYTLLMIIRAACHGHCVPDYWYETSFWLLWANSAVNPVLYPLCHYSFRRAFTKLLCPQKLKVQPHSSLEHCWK
Method: General Procedure for H3-Receptor Binding Assay
The source of the H3 receptors in this experiment was guinea pig brain. The animals weighed 400-600 g. The brain tissue was homogenized with a solution of 50 mM Tris, pH 7.5. The final concentration of tissue in the homogenization buffer was 10% w/v. The homogenates were centrifuged at 1,000×g for 10 min. in order to remove clumps of tissue and debris. The resulting supernatants were then centrifuged at 50,000×g for 20 min. in order to sediment the membranes, which were next washed three times in homogenization buffer (50,000×g for 20 min. each). The membranes were frozen and stored at −70° C. until needed.
All compounds to be tested were dissolved in DMSO and then diluted into the binding buffer (50 mM Tris, pH 7.5) such that the final concentration was 2 μg/ml with 0.1% DMSO. Membranes were then added (400 μg of protein) to the reaction tubes. The reaction was started by the addition of 3 nM [^3H]R-α-methyl histamine (8.8 Ci/mmol) or 3 nM [^3H]N^α-methyl histamine (80 Ci/mmol) and continued under incubation at 30° C. for 30 min. Bound ligand was separated from unbound ligand by filtration, and the amount of radioactive ligand bound to the membranes was quantitated by liquid scintillation spectrometry.

| SMILES | Ki (Histamine H1 receptor) | Ki (H3 receptors) |
| --- | --- | --- |
| Clc1ccc(C(CCNCCCCc2c[nH]cn2)c2ccccn2)cc1 (stereo not shown) | 254 nM | 10 nM |
| Clc1ccc(C(NCCCCc2c[nH]cn2)c2ccc(Cl)cc2)cc1 |  | 2 nM |
| O=C(CC(c1ccc(Br)cc1)c1ccccn1)NCCCCc1c[nH]cn1 (stereo not shown) |  | 50 nM |
| N=C(CC(c1ccc(Cl)cc1)c1ccccn1)NCCc1c[nH]cn1 (stereo not shown) |  | 8 nM |
| CN(CCCCc1c[nH]cn1)CCC(c1ccc(Cl)cc1)c1ccccn1 (stereo not shown) | 7 nM | 15 nM |
| O=C(/C=C(\c1ccc(Cl)cc1)c1ccccn1)NCCc1c[nH]cn1 |  | 37 nM |
| O=C(NCCC(c1ccc(Cl)cc1)c1ccccn1)OCCc1c[nH]cn1 (stereo not shown) |  | 260 nM |
| CN(CCCc1c[nH]cn1)CCC(c1ccc(Cl)cc1)c1ccccn1 (stereo not shown) | 10 nM | 120 nM |
| O=C(NCCCCc1c[nH]cn1)C(c1ccc(Cl)cc1)c1ccc(Cl)cc1 |  | 33.5 nM |
| N=C(CCCc1c[nH]cn1)NCCC(c1ccc(Cl)cc1)c1ccccn1 (stereo not shown) | 201 nM | 29 nM |
| O=C(CC(c1ccc(Cl)cc1)c1ccccn1)NCCc1c[nH]cn1 (stereo not shown) |  | 16 nM |
| O=C(CC(c1ccccc1)c1ccccc1)NCCCCc1c[nH]cn1 |  | 36 nM |
| CN(CCCCc1c[nH]cn1)C(=O)CC(c1ccc(Cl)cc1)c1ccccn1 (stereo not shown) |  | 6.5 nM |
| CN(CCc1c[nH]cn1)C(=O)CC(c1ccc(Cl)cc1)c1ccccn1 (stereo not shown) |  | 1 nM |
| O=C(CCc1c[nH]cn1)NCCC(c1ccc(Cl)cc1)c1ccccn1 (stereo not shown) |  | 510 nM |
| O=C(CC(c1ccc(Cl)cc1)c1cccc[n+]1[O-])NCCCCc1c[nH]cn1 (stereo not shown) |  | 8.5 nM |
| O=C(CC(c1ccc(Cl)cc1)c1ccccn1)NCCCCc1c[nH]cn1 (stereo not shown) |  | 0.8 nM |
| Clc1ccc(C(NCCCCc2c[nH]cn2)c2ccccc2)cc1 (stereo not shown) |  | 6 nM |
| Clc1ccc(C(CCN(CCCCc2c[nH]cn2)CCCCc2c[nH]cn2)c2ccccn2)cc1 (stereo not shown) | 83.5 nM | 23 nM |
| Clc1ccc(C(CCNCCCc2c[nH]cn2)c2ccccn2)cc1 (stereo not shown) |  | 240 nM |
| Clc1ccc(C(CCNCCc2c[nH]cn2)c2ccccn2)cc1 (stereo not shown) | 600 nM | 56 nM |
| C[N+](C)(CCCCc1c[nH]cn1)CCC(c1ccc(Cl)cc1)c1ccccn1 (stereo not shown) | 120 nM | 160 nM |
| CN(CCC(c1ccc(Cl)cc1)c1ccccn1)C(=O)CCc1c[nH]cn1 (stereo not shown) | 1000 nM | 260 nM |
